Reference: patent publication US20240148821A1, “PHARMACEUTICAL USE OF CYCLIC PEPTIDE COMPOUND” (CHUGAI SEIYAKU KABUSHIKI KAISHA, priority 2021, published 2024)
pIC50: −log10 of the molar value. Numbered stars: 1 amine (or outer) side, 2 acyl side, 3 side chain; on linkers, the order of the positions; unused ones are H or OH. Bridge positions count the residues as written; N and C are the ends. Square brackets hold non-standard residues; d marks the D form. Peptide text beside a SMILES is read from it. * marks the point of attachment. hPhe(3,5-F2-4-CF3) = N[C@@H](CCc1cc(F)c(C(F)(F)F)c(F)c1)C(=O)O; hPhe(3-Cl-4-CF3) = N[C@@H](CCc1ccc(C(F)(F)F)c(Cl)c1)C(=O)O; NMePhe(4-CF3) = CN[C@@H](Cc1ccc(C(F)(F)F)cc1)C(=O)O; Pro(cis-4-Ph) = O=C(O)[C@@H]1C[C@H](c2ccccc2)CN1; X105 = C[C@@](Cc1cccc(I)c1)(N[*:1])C(=O)[*:2]; X36 = O=C([C@H](Cc1cc(F)cc(Cl)c1)N[*:1])[*:2]; NMePhe(4-Cl) = CN[C@@H](Cc1ccc(Cl)cc1)C(=O)O; NMePhe(2-CN) = CN[C@@H](Cc1ccccc1C#N)C(=O)O; NMePhe(4-Me) = CN[C@@H](Cc1ccc(C)cc1)C(=O)O; NMePhe(4-F) = CN[C@@H](Cc1ccc(F)cc1)C(=O)O; NMeAla(cPent) = CN[C@@H](CC1CCCC1)C(=O)O; NMePhe(2-F) = CN[C@@H](Cc1ccccc1F)C(=O)O; NMeGly(cPent) = CN[C@H](C(=O)O)C1CCCC1; Phe(3-I) = N[C@@H](Cc1cccc(I)c1)C(=O)O; NMe4Pal = CN[C@@H](Cc1ccncc1)C(=O)O; NMeY = CN[C@@H](Cc1ccc(O)cc1)C(=O)O; NMeCha = CN[C@@H](CC1CCCCC1)C(=O)O; Hyp = O=C(O)[C@@H]1C[C@@H](O)CN1; NMeChg = CN[C@H](C(=O)O)C1CCCCC1; NMeI = CC[C@H](C)[C@H](NC)C(=O)O; NMeD = CN[C@@H](CC(=O)O)C(=O)O; NMeL = CN[C@@H](CC(C)C)C(=O)O; Cba = N[C@@H](CC1CCC1)C(=O)O; d(β3hP) = O=C(O)C[C@H]1CCCN1; NMeV = CN[C@H](C(=O)O)C(C)C; d(β3hA) = C[C@@H](N)CC(=O)O; Morpholide = C1CN(*)CCO1; NMeA = CN[C@@H](C)C(=O)O; NMeAib = CNC(C)(C)C(=O)O; Nle = CCCC[C@H](N)C(=O)O; Piperidide = C1CCN(*)CC1; Pra = C#CC[C@H](N)C(=O)O; dNMeA = CN[C@H](C)C(=O)O; Ac5c = NC1(C(=O)O)CCCC1; Aze = O=C(O)[C@@H]1CCN1; βAla = NCCC(=O)O; CF3 = FC(F)(F)*; Sar = CNCC(=O)O

Tested on: Human pancreatic cancer cell line AsPC-1 (G12D mutation Kras)
Assay: AsPC-1 cell growth inhibition (AsPC-1 CGI)
Type: cell-based
Conditions: read-out: AsPC-1 cell growth inhibition, 50% growth inhibitory concentration (IC50 value); 96 hours, CellTiter-Glo, values classified in ranges
Method: Test compounds were serially dilated with dimethyl sulfoxide, and 200 nL was then dispensed to a U-bottom 96-well plate using Labcyte Echo. […] The cell suspension was dispensed to a. plate containing a test compound at 100 μL per well and incubated at 37° C. in a 5% carbon dioxide gas incubator. 96 hours later, 80 μL of CellTiter-Glo (Promega) was added to each well and fluorescence was measured.

SMILES | pIC50
CC[C@H](C)[C@@H]1NC(=O)[C@H](CC(C)C)N(C)C(=O)C[C@@H](C(=O)N(C)C)N(C)C(=O)[C@H]([C@@H](C)CC)N(C)C(=O)C2(CCCC2)NC(=O)[C@@H]2CCCN2C(=O)[C@H](CCc2ccc(C(F)(F)F)c(Cl)c2)NC(=O)CN(C)C(=O)[C@H](CC2CCCCC2)N(C)C(=O)CN(C)C(=O)CN(C)C1=O [Compound 1865] ([NMeL]I[Sar][Sar][NMeCha][Sar][hPhe(3-Cl-4-CF3)]P[Ac5c][NMeI][NMeD]-NMe2; lactam N-11) | ≥ 7.70
CC[C@H](C)[C@@H]1NC(=O)[C@H](CC(C)C)N(C)C(=O)CCNC(=O)[C@H](C(C)C)N(C)C(=O)C2(CCCC2)NC(=O)[C@@H]2CCCN2C(=O)[C@H](CCc2ccc(C(F)(F)F)c(Cl)c2)NC(=O)CN(C)C(=O)[C@H](CC2CCCCC2)N(C)C(=O)CN(C)C(=O)CN(C)C1=O [Compound 979] (cyclo([Ac5c][NMeV][βAla][NMeL]I[Sar][Sar][NMeCha][Sar][hPhe(3-Cl-4-CF3)]P)) | < 6.30
CCO[C@@H]1C[C@H]2C(=O)NC3(CCCC3)C(=O)N(C)[C@@H]([C@@H](C)CC)C(=O)N(C)[C@H](C(=O)N3CCOCC3)CC(=O)N(C)[C@@H](CC(C)C)C(=O)N[C@@H]([C@@H](C)CC)C(=O)N(C)[C@@H](C)C(=O)N3CC[C@H]3C(=O)N(C)[C@@H](Cc3ccc(C(F)(F)F)cc3)C(=O)N(C)CC(=O)N[C@@H](CCc3cc(F)c(C(F)(F)F)c(F)c3)C(=O)N2C1 [Compound 1261] ([NMeL]I[NMeA][Aze][NMePhe(4-CF3)][Sar][hPhe(3,5-F2-4-CF3)][Hyp](Et)[Ac5c][NMeI][NMeD]-Morpholide; lactam N-11) | ≥ 7.70
CC[C@H](C)[C@@H]1NC(=O)[C@H](CC(C)C)N(C)C(=O)C[C@@H](C(=O)N2CCCCC2)N(C)C(=O)[C@H](C2CCCCC2)N(C)C(=O)C2(CCCC2)NC(=O)[C@@H]2C[C@H](c3ccccc3)CN2C(=O)[C@H](CCc2ccc(C(F)(F)F)c(Cl)c2)NC(=O)CN(C)C(=O)[C@H](CC2CCCCC2)N(C)C(=O)[C@@H]2CCN2C(=O)[C@H](C)N(C)C1=O [Compound 1053] ([NMeL]I[NMeA][Aze][NMeCha][Sar][hPhe(3-Cl-4-CF3)][Pro(cis-4-Ph)][Ac5c][NMeChg][NMeD]-Piperidide; lactam N-11) | < 6.30
CC[C@H](C)[C@@H]1NC(=O)[C@H](C)N(C)C(=O)C[C@@H](C)NC(=O)[C@H](C2CCCC2)N(C)C(=O)C2(CCCC2)NC(=O)[C@@H]2CCCN2C(=O)[C@H](CCc2ccc(C(F)(F)F)c(Cl)c2)NC(=O)CN(C)C(=O)[C@H](Cc2ccccc2F)N(C)C(=O)[C@@H]2CCCN2C(=O)CN(C)C1=O [Compound 1077] (cyclo([Ac5c][NMeGly(cPent)][d(β3hA)][NMeA]I[Sar]P[NMePhe(2-F)][Sar][hPhe(3-Cl-4-CF3)]P)) | < 6.30
CC[C@H](C)[C@@H]1NC(=O)[C@H](CC(C)C)N(C)C(=O)C[C@@H](C(=O)N(C)C)N(C)C(=O)[C@H](C2CCCC2)N(C)C(=O)C2(CCCC2)NC(=O)[C@H](Cc2ccc(Cl)cc2)N(C)C(=O)[C@H](CCc2ccc(C(F)(F)F)c(Cl)c2)NC(=O)CN(C)C(=O)[C@H](CC2CCCCC2)N(C)C(=O)[C@@H]2CCN2C(=O)[C@H](C)N(C)C1=O [Compound 1063] ([NMeL]I[NMeA][Aze][NMeCha][Sar][hPhe(3-Cl-4-CF3)][NMePhe(4-Cl)][Ac5c][NMeGly(cPent)][NMeD]-NMe2; lactam N-11) | < 6.30
CCCC[C@@H]1NC(=O)[C@H](Cc2cc(F)cc(Cl)c2)NC(=O)CN(C)C(=O)[C@H](Cc2ccc(Cl)cc2)N(C)C(=O)CN(C)C(=O)CN(C)C(=O)[C@H]([C@@H](C)CC)NC(=O)[C@H](CC(C)C)N(C)C(=O)C[C@@H](C(=O)N2CCCCC2)N(C)C(=O)[C@H](CC(C)C)NC(=O)C(C)(C)N(C)C1=O [Compound 202] ([NMeL]I[Sar][Sar][NMePhe(4-Cl)][Sar][X36][Nle][NMeAib]L[NMeD]-Piperidide; lactam N-11) | < 6.30
C#CC[C@@H]1NC(=O)[C@H](Cc2cccc(I)c2)NC(=O)CN(C)C(=O)[C@H](Cc2ccc(F)cc2)N(C)C(=O)[C@@H]2CCN2C(=O)[C@H](C)N(C)C(=O)[C@H]([C@@H](C)CC)NC(=O)[C@H](CC(C)C)N(C)C(=O)C[C@@H](C(=O)N2CCCCC2)N(C)C(=O)[C@H](CC(C)C)NC(=O)C(C)(C)N(C)C1=O [Compound 1230] ([NMeL]I[NMeA][Aze][NMePhe(4-F)][Sar][Phe(3-I)][Pra][NMeAib]L[NMeD]-Piperidide; lactam N-11) | < 6.30
CC[C@H](C)[C@@H]1NC(=O)[C@H](CC(C)C)N(C)C(=O)C[C@@H](C(=O)N2CCCCC2)N(C)C(=O)[C@H](C(C)C)N(C)C(=O)C2(CCCC2)NC(=O)[C@@H]2CCCN2C(=O)[C@H](CCc2ccc(C(F)(F)F)c(Cl)c2)NC(=O)CN(C)C(=O)[C@H](Cc2ccccc2C#N)N(C)C(=O)CN(C)C(=O)CN(C)C1=O [Compound 935] ([NMeL]I[Sar][Sar][NMePhe(2-CN)][Sar][hPhe(3-Cl-4-CF3)]P[Ac5c][NMeV][NMeD]-Piperidide; lactam N-11) | < 6.30
CCCC[C@@H]1NC(=O)[C@](C)(Cc2cccc(I)c2)NC(=O)CN(C)C(=O)[C@H](Cc2ccc(Cl)cc2)N(C)C(=O)CN(C)C(=O)CN(C)C(=O)[C@H]([C@@H](C)CC)NC(=O)[C@H](CC(C)C)N(C)C(=O)C[C@@H](C(=O)N2CCCCC2)N(C)C(=O)[C@H](CC(C)C)NC(=O)C(C)(C)N(C)C1=O [Compound 1202] ([NMeL]I[Sar][Sar][NMePhe(4-Cl)][Sar][X105][Nle][NMeAib]L[NMeD]-Piperidide; lactam N-11) | < 6.30
CCCC[C@@H]1NC(=O)[C@H](Cc2cccc(I)c2)NC(=O)CN(C)C(=O)[C@H](Cc2ccc(Cl)cc2)N(C)C(=O)CN(C)C(=O)CN(C)C(=O)[C@H]([C@@H](C)CC)NC(=O)[C@H](CC(C)C)N(C)C(=O)C[C@@H](C(=O)N2CCCCC2)N(C)C(=O)[C@H](CC(C)C)NC(=O)[C@H](Cc2ccc(OC(F)(F)F)cc2)N(C)C1=O [Compound 819] ([NMeL]I[Sar][Sar][NMePhe(4-Cl)][Sar][Phe(3-I)][Nle][NMeY](CF3)L[NMeD]-Piperidide; lactam N-11) | < 6.30
CC[C@H](C)[C@@H]1NC(=O)[C@H](CC(C)C)N(C)C(=O)C[C@@H](C(=O)N(C)C)N(C)C(=O)[C@H]([C@@H](C)CC)N(C)C(=O)[C@H](C(C)C)NC(=O)[C@H](Cc2ccncc2)N(C)C(=O)[C@H](CCc2ccc(C(F)(F)F)c(Cl)c2)NC(=O)CN(C)C(=O)[C@H](Cc2ccc(C)cc2)N(C)C(=O)[C@@H]2CCN2C(=O)[C@H](C)N(C)C1=O [Compound 1897] ([NMeL]I[NMeA][Aze][NMePhe(4-Me)][Sar][hPhe(3-Cl-4-CF3)][NMe4Pal]V[NMeI][NMeD]-NMe2; lactam N-11) | < 6.30
CC[C@H](C)[C@@H]1NC(=O)[C@H](CC(C)C)N(C)C(=O)C[C@H]2CCCN2C(=O)[C@H](C2CCCCC2)N(C)C(=O)C2(CCCC2)NC(=O)[C@@H]2CCCN2C(=O)[C@H](CCc2ccc(C(F)(F)F)c(Cl)c2)NC(=O)CN(C)C(=O)[C@H](CC2CCCCC2)N(C)C(=O)CN(C)C(=O)CN(C)C1=O [Compound 1185] (cyclo([Ac5c][NMeChg][d(β3hP)][NMeL]I[Sar][Sar][NMeCha][Sar][hPhe(3-Cl-4-CF3)]P)) | < 6.30
CCCC[C@@H]1NC(=O)[C@H](Cc2cccc(I)c2)NC(=O)CN(C)C(=O)[C@H](Cc2ccc(Cl)cc2)N(C)C(=O)CN(C)C(=O)CN(C)C(=O)[C@H]([C@@H](C)CC)NC(=O)[C@H](CC(C)C)N(C)C(=O)C[C@@H](C(=O)N2CCCCC2)N(C)C(=O)[C@H](CC(C)C)NC(=O)[C@H](Cc2ccc(C)cc2)N(C)C1=O [Compound 876] ([NMeL]I[Sar][Sar][NMePhe(4-Cl)][Sar][Phe(3-I)][Nle][NMePhe(4-Me)]L[NMeD]-Piperidide; lactam N-11) | < 6.30
CCCC[C@@H]1NC(=O)[C@H](CCc2ccc(C(F)(F)F)c(Cl)c2)NC(=O)CN(C)C(=O)[C@H](CC2CCCC2)N(C)C(=O)[C@@H]2CCN2C(=O)[C@H](C)N(C)C(=O)[C@H]([C@@H](C)CC)NC(=O)[C@H](CC(C)C)N(C)C(=O)C[C@@H](C(=O)N2CCCCC2)N(C)C(=O)[C@H](CC(C)C)NC(=O)C(C)(C)N(C)C1=O [Compound 691] ([NMeL]I[NMeA][Aze][NMeAla(cPent)][Sar][hPhe(3-Cl-4-CF3)][Nle][NMeAib]L[NMeD]-Piperidide; lactam N-11) | < 6.30
CC[C@H](C)[C@@H]1NC(=O)[C@H](C)N(C)C(=O)C[C@@H](C)NC(=O)[C@H](C2CCCC2)N(C)C(=O)C2(CCCC2)NC(=O)[C@@H]2CCCN2C(=O)[C@H](CCc2ccc(C(F)(F)F)c(Cl)c2)NC(=O)[C@@H](C)N(C)C(=O)[C@H](C(C)C)N(C)C(=O)CN(C)C(=O)CN(C)C1=O [Compound 109] (cyclo([Ac5c][NMeGly(cPent)][d(β3hA)][NMeA]I[Sar][Sar][NMeV][dNMeA][hPhe(3-Cl-4-CF3)]P)) | < 6.30
CC[C@H](C)[C@@H]1NC(=O)[C@H](CC(C)C)N(C)C(=O)C[C@@H](C)NC(=O)[C@H](C(C)C)N(C)C(=O)C2(CCCC2)NC(=O)[C@@H]2CCCN2C(=O)[C@H](CCc2ccc(C(F)(F)F)c(Cl)c2)NC(=O)CN(C)C(=O)[C@H](CC2CCCCC2)N(C)C(=O)CN(C)C(=O)[C@@H]2CCCN2C1=O [Compound 185] (cyclo([Ac5c][NMeV][d(β3hA)][NMeL]IP[Sar][NMeCha][Sar][hPhe(3-Cl-4-CF3)]P)) | < 6.30
CC(C)C[C@H]1C(=O)N[C@@H](CC2CCC2)C(=O)N(C)CC(=O)N(C)CC(=O)N(C)[C@@H](CC2CCCCC2)C(=O)N(C)CC(=O)N[C@@H](CCc2ccc(C(F)(F)F)c(Cl)c2)C(=O)N2CCC[C@H]2C(=O)NC2(CCCC2)C(=O)N(C)[C@@H](C2CCCCC2)C(=O)N(C)[C@H](C(=O)N2CCCCC2)CC(=O)N1C [Compound 1759] ([NMeL][Cba][Sar][Sar][NMeCha][Sar][hPhe(3-Cl-4-CF3)]P[Ac5c][NMeChg][NMeD]-Piperidide; lactam N-11) | < 6.30
